Experimental data as given in patent publication US20260272878A1, “ADAR1 INHIBITORS AND USES THEREOF” (THE WISTAR INSTITUTE OF ANATOMY AND BIOLOGY, priority 2023, published 2026).
Entries after “also recorded” stand apart in the source; their conditions may differ.

Key:
ADAR1p150 = biological target: T1, ADAR1p150 (Homo sapiens, UniProt P55265); experiment: In vitro editing assay, ADAR1p150; format: biochemical; conditions: for IC50: ADAR1p150 (not shown)
T1 sequence (P55265 1-1226): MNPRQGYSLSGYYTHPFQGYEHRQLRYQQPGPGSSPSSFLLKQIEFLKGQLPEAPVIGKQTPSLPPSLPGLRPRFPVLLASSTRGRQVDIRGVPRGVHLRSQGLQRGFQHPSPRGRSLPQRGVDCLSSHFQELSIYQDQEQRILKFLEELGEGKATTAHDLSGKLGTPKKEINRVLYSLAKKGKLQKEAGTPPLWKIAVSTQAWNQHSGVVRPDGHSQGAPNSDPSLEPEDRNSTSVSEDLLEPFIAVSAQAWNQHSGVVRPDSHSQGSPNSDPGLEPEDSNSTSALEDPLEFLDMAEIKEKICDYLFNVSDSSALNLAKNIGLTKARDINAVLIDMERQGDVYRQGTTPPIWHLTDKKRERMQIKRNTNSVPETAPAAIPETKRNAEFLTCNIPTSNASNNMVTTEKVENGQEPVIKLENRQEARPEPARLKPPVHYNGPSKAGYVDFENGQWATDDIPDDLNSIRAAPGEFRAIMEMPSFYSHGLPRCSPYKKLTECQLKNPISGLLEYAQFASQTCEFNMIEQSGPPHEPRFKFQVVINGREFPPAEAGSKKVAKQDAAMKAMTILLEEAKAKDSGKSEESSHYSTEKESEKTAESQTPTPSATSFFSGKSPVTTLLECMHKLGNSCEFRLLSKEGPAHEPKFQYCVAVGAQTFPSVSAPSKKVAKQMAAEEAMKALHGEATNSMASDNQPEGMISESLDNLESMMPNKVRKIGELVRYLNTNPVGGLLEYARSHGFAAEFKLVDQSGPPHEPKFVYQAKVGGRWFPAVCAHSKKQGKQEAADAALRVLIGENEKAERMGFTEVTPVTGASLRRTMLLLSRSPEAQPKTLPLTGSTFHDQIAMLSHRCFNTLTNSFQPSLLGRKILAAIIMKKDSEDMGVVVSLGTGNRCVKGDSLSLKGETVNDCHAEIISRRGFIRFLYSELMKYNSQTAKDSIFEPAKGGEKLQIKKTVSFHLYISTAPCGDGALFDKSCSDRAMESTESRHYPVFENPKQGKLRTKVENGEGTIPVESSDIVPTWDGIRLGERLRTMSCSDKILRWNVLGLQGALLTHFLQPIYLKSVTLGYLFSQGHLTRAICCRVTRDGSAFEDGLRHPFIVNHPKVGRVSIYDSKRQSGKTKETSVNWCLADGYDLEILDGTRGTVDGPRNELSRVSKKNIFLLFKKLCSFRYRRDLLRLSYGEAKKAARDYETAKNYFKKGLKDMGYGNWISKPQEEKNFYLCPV
Method: The in vitro editing reaction mixture, containing 5 nM of telomere RNA:RNA duplex substrates and 75 nM of HAT-ADAR1p110-WT, FLAG-ADAR1p110-WT, or HA-ADAR1p110-EAA protein, was incubated at 37° C. for 2 h in in vitro editing buffer I (20 mM HEPES-KOH PH 7.5, 100 mM NaCl, 0.01% NP-40, 5% glycerol, 1 mM DTT). For editing of RNA:DNA hybrid substrates, in vitro editing buffer II (20 mM HEPES-KOH PH 7.5, 20 mM NaCl, 0.01% NP-40, 5% glycerol, 1 mM DTT) was used. Edited RNA or DNA strands were purified using Dynabeads MyOne Streptavidin C1 (Thermo Fisher Scientific). To remove opposite RNA or DNA strands, rNase H (NEB) or TURBO dNase (Thermo Fisher Scientific) was used, respectively. For sequencing of edited substrates, reverse transcription-PCR was carried out for RNA strands, while PCR was carried out for DNA strands. RT reactions were carried out using SuperScript III Reverse Transcriptase (Thermo Fisher Scientific), and PCR reactions were performed using Platinum Taq DNA polymerase (Thermo Fisher Scientific). PCR products were sequenced using a specific sequencing primer, and the ratio of A and G peaks in the chromatograms were analyzed by CodonCode Aligner (CodonCode Corporation).
Seven additional analogs of ADAR1i-13 (FIG. 5A) were synthesized to determine structural characteristics required for ADAR1 editing inhibitory activity. […] In vitro editing IC50 values of ADAR1i-13, ADAR1i-120, and ADAR1i-124 (FIG. 5A) were similar, in the ~10-20 μM range, for both ADAR1p110 (FIG. 5A) and ADAR1p150 (not shown).

YUMM1.7 cells = experiment: Immunostaining (MAb J2) of unedited dsRNA fibers; format: cell-based, mouse; conditions: for Unedited dsRNA fiber structures in cells: immunostaining with MAb J2, YUMM1.7 cells
From the text: FIGS. 7A-7C show analysis of ADAR1i-13 and analogs. […] IC50 values determined by dose-dependent in vitro editing assay are shown for ADAR1 inhibition positive compounds. […] Dumbbell-shaped dsRNA has been reported to form Z-RNA conformation and act as a strong IFN signaling activation triggers. ADAR1p150 mediated A-to-I editing suppresses Z-RNA structure transition and activation of IFN signaling.
It has been reported that the suppression ADAR1 editing activity results in binding of MDA5 to unedited dsRNAs, oligomerization of MDA5-dsRNA complexes, and formation of fiber-like structures (21, 44). These dsRNA fiber structures were detected in cells treated with ADAR1 inhibition active compounds, ADAR1i-13, ADAR1i-120, and ADAR1i-124, but not detected in cells treated with ADAR1 inhibition negative compounds (FIG. 7A).

HeLa cells = experiment: Dot blot analysis for RNA:DNA hybrids (R-loops); format: cell-based, human; conditions: 10 μM for ADAR1i-124

| IC50 (ADAR1p150) [µM] | SMILES | Unedited dsRNA fiber structures in cells (YUMM1.7 cells) | Formation of R-loops (RNA:DNA hybrids) (HeLa cells) | Inhibition of ADAR1p150 (ADAR1p150; result in words) | RNase III sensitivity of induced dsRNA fibers (YUMM1.7 cells; RNase III treatment) |
| --- | --- | --- | --- | --- | --- |
| 10 to 20 | N#Cc1ccc(NC(=O)c2sc3ccccc3c2Cl)cc1 [ADAR1i-13, 3-chloro-N-(4-cyanophenyl)-1-benzothiophene-2-carboxamide] | detected; also recorded: unedited dsRNA fibers induced | increased formation of R-loops | – | – |
| 10 to 20 | N#Cc1ccccc1NC(=O)c1sc2ccccc2c1Cl [ADAR1i-120] | detected; also recorded: unedited dsRNA fibers induced | increased formation of R-loops | – | – |

| SMILES | IC50 (ADAR1p150) [µM] | Unedited dsRNA fiber structures in cells (YUMM1.7 cells) | Formation of R-loops (RNA:DNA hybrids) (HeLa cells) | Inhibition of ADAR1p150 (ADAR1p150; result in words) | RNase III sensitivity of induced dsRNA fibers (YUMM1.7 cells; RNase III treatment) |
| --- | --- | --- | --- | --- | --- |
| N#Cc1ccc(NC(=O)c2c(Cl)c3ccccc3n2CO)cc1 [ADAR1i-124] | 10 to 20 | detected; also recorded: unedited dsRNA fibers induced | increased formation of R-loops; also recorded: RNA:DNA hybrids induced | inhibited both ADAR1p150 and ADAR1p-110 | abolished by RNase III treatment; also recorded: sensitive to RNase III treatment |
